Source: patent publication US6432883B1, “Methods of treating plants with glycolic acid” (Emerald BioAgriculture Corporation, priority 2000, dated 2002)
Marks after values point to notes of the source that are not given here.

What was measured:
Sclerotinia minor [1] = experiment: Colony radius of plant pathogen on amended potato dextrose agar; format: cell-based; details: in PDA, 4 days, about 23° C., FIG. 5
Excerpt: Sclerotinia minor culture SaM-18 was received from Krishna Subbarro, Ph.D., Univ. Calif., Davis. Potato dextrose agar (PDA) powder was purchased from Baltimore Biological Laboratory, Inc. (BBL), ammonium glycolate and glycolic acid from DuPont Specialty Chemicals and BreakThru® surfactant from Goldschmidt Chemical Corp.
PDA was made, poured into sterile disposable petri dishes (100×15 mm) and inoculated with S. minor sclerotia to start new cultures on day zero. These cultures had reached an appropriate stage of maturation for use for use in the test after two weeks of growth. Multiple 1 liter containers of PDA were made and autoclaved on day 14. These PDA containers remained in the circulating water bath at 46° C. until the solutions were ready for addition (about 2 hrs.). The glycolic acid-containing compositions were added to the 46° C. PDA through a syringe-tip 0.2 μm-pore sterile filtration disc in a positive laminar-flow sterile hood and thoroughly mixed before returning to the 46° C. water bath to await pouring. Stacks of 22 dishes were poured for each medium type and allowed to solidify and cool overnight.
On day 15, soft, white to gray, sclerotial clumps of hyphae were picked from the culture dishes with heat sterilized forceps and one clump was transferred to the center of each test medium dish. Twenty dishes of each inoculated medium were stacked and replaced into the plastic sleeves they were originally packaged in for incubation at room temperature (about 23° C.). After 4 days of growth, some of the cultures had just reached the edges of the medium. The radius of each colony was measure in mm.
Treatments were water controls, 0.05% surfactant controls, 5, 15, 50, 75 and 100 ppm of glycolic acid (F12) and 5, 15, 50, 100 and 750 ppm of ammonia-neutralized glycolic acid (F18; i.e., ammonium glycolate).

Sclerotinia minor [2] = experiment: Excised lettuce leaves, post-harvest pathogen stress: disease index; format: in vivo; details: for Disease Index [(severity)(% incidence)/100]: 3 days post-inoculation
Excerpt: Waldmann's MTO dark green Grand Rapids leaf lettuce seed, lot# 15529, was purchased from Johnny's Selected Seeds, Albion, Me., and broadcast seeded into 10×20×2′ flats. Circular steel-blue blotter papers (Anchor Paper Co, St. Paul, Minn.) were fitted into disposable petri dishes. Treatments consisted of non-inoculated and inoculated groups of non-treated (NTC), water and 0.01% surfactant-blank (SB) controls and 10, 25, 75,150, 500 and 1000 ppm of glycolic acid.
Blotters were saturated with 4.5 ml sterile tap water. Individual leaves (20) were excised and placed into a treatment solution for 5 seconds or left non-treated. Excess fluid was removed from the leaf surface. These leaves were then placed singly, 1 leaf per dish and adaxial side up, on the moist blotters. Dish lids were replaced and dishes stacked, bagged and returned to the petri dish box for 24 hours dark storage at room temperature (68-72° F.).
Inoculum (Sclerotinia minor hyphal fragments and sclerotia) was grown on potato dextrose agar (PDA) plates until the sclerotia were black and hard. These were blended into a paste with non-inoculated PDA and sterile tap water. A small spot of inoculum paste containing hyphal fragments and 2-3 sclerotia was dotted onto the center of 16 of the 20 leaf pieces per treatment stack 24 hours after test substance application.
Due to the nature of Sclerotinia as a pathogen, disease is generally an all-or-nothing phenomenon. Therefore, it is necessary to assess both disease incidence and disease severity to give an accurate representation of the disease progression. Disease severity assessment was made at 3 days±2 hours post-inoculation by measuring the radius of colonized tissue in mm. Disease incidence was assessed as the presence or absence of infection (number of diseased leaves/ number of leaves tested) 100=% incidence. Multiplying the average severity by the % incidence and dividing by 100 then combined both evaluations into one assessment number and created a disease index value. The results in Table 5 below show this value for each treatment.

Sclerotinia minor [3] = experiment: Cabbage pathogen stress: disease severity rating, fresh and dry weights; format: in vivo; details: for Dry Weight / Fresh Weight: cabbage under pathogen stress; for Disease Severity Rating: cabbage, 1-9 rating scale
Method: Market Prize, F1 cabbage seed, lot 88955, was purchased from Harris Seeds, Inc., Rochester, N.Y. These were grown 8 plants per 1 gallon pot, 1 pot per experimental unit and 3 experimental units per each of 3 replications. The plants were spray-treated first at 4 true leaves and again 14 days later with 8 ml per pot. The pathogen stress (Sclerotinia minor hyphal fragments and sclerotia, cultured on potato dextrose agar) was applied to the plant stems at the soil/stem interface at 4 days following the second treatment application.
Treatments consisted of non-inoculated and inoculated groups of non-treated (NTC), water and 0.05% surfactant-blank (SB) controls and 1, 5, 10, 25, 37.5 and 75 ppm of glycolic acid.
Disease assessment was made just prior to harvest by means of a 1-9 based rating scale. Each plant was harvested at the soil line for yield fresh and dry weights. The results in Table 2 below show the data for each treatment and the rating scale definitions.

cabbage = experiment: Cabbage cold shock and heat treatment: fresh and dry weights; format: in vivo; set-up: Avg. Fresh Weights ± SD / Avg. Dry Weights ± SD: unit not given here
Excerpt: Seeds of Heads Up cabbage were obtained from Harris Seeds, Rochester, N.Y. and grown in 7″×5¼″×2¼″ (17.78 cm×13.34×5.72 cm) Kord inserts (Park Seeds, Greenwood, S.C.) containing Bacto potting soil (Michigan Peat Company, Houston, Tex.). After plants had germinated, cabbage seedlings were thinned to six plants per insert. Inserts were kept in 12″×8¾″ (30.48 cm×22.23 cm) perma nest trays (Park Seed) with two inserts per tray. Each treatment consisted of three replicate trays containing a total of eighteen cabbage plants. After 12 days, some of the plant were sprayed with Glypure® at 25 ppm, 100 ppm, and 200 ppm. Treated plants were given a second application of Glypure® 7 days later. Untreated and treated plants were subjected to freeze and heat shock treatments 24 hours later. Cold shock was administered by exposing plants to −3° C. for 2 hours and 20 minutes. Heat treatment was provided by placing plants in an oven for 5 hours at 46.5° C. One week following the temperature treatments, the plants were harvested and the fresh and dry weights were determined.

[4] = Cold Stress (−3° C., 2 hours 20 minutes), 25 ppm
[5] = Cold Stress (−3° C., 2 hours 20 minutes), 200 ppm
[6] = Heat Stress (46.5° C., 5 hours), 25 ppm
[7] = Heat Stress (46.5° C., 5 hours), 200 ppm

Compound: O=C(O)CO [glycolic acid]
- growth of Sclerotinia minor (colony radius) compared to controls (Sclerotinia minor [1]): statistically significantly increased the growth
- Disease Index [(severity)(% incidence)/100] (Sclerotinia minor [2]; 10 ppm leaf dip): 1.2
- disease severity versus control lettuce (Sclerotinia minor [2]; 25 ppm and 75 ppm, lettuce leaves, α=0.05): statistically significant (α=0.05) decrease
- Disease Index [(severity)(% incidence)/100] (Sclerotinia minor [2]; 25 ppm leaf dip): 0.1*
- Disease Index [(severity)(% incidence)/100] (Sclerotinia minor [2]; 75 ppm leaf dip): 0.5*
- Disease Index [(severity)(% incidence)/100] (Sclerotinia minor [2]; 150 ppm leaf dip): 1.3
- Disease Index [(severity)(% incidence)/100] (Sclerotinia minor [2]; 500 ppm leaf dip): 1.1
- Disease Index [(severity)(% incidence)/100] (Sclerotinia minor [2]; 1000 ppm leaf dip): 2.0
- Dry Weight (Sclerotinia minor [3]; 1 ppm spray): 38.3 g
- Fresh Weight (Sclerotinia minor [3]; 1 ppm spray): 359 g
- Disease Severity Rating (Sclerotinia minor [3]; 1 ppm spray): 3.6
- Dry Weight (Sclerotinia minor [3]; 5 ppm spray): 39.8 g
- Fresh Weight (Sclerotinia minor [3]; 5 ppm spray): 346 g
- Disease Severity Rating (Sclerotinia minor [3]; 5 ppm spray): 3.7
- Dry Weight (Sclerotinia minor [3]; 10 ppm spray): 40.9 g
- Fresh Weight (Sclerotinia minor [3]; 10 ppm spray): 342 g
- Disease Severity Rating (Sclerotinia minor [3]; 10 ppm spray): 2.8
- Dry Weight (Sclerotinia minor [3]; 25 ppm spray): 39.1 g
- Fresh Weight (Sclerotinia minor [3]; 25 ppm spray): 364 g
- Disease Severity Rating (Sclerotinia minor [3]; 25 ppm spray): 2.2
- disease severity versus control (Sclerotinia minor [3]; 37.5 and 75 ppm, α=0.05): statistically significant (α=0.05) decrease
- fresh weight versus control (Sclerotinia minor [3]; 37.5 ppm): statistically significant increase
- Dry Weight (Sclerotinia minor [3]; 37.5 ppm spray): 39.0 g
- Fresh Weight (Sclerotinia minor [3]; 37.5 ppm spray): 381* g
- Disease Severity Rating (Sclerotinia minor [3]; 37.5 ppm spray): 1.7*
- dry weight versus control (Sclerotinia minor [3]; 75 ppm): statistically significant increase
- Dry Weight (Sclerotinia minor [3]; 75 ppm spray): 41.5* g
- Fresh Weight (Sclerotinia minor [3]; 75 ppm spray): 354 g
- Disease Severity Rating (Sclerotinia minor [3]; 75 ppm spray): 2.0*
- reduction in fresh and dry weights caused by the adverse temperatures, versus untreated plants (cabbage; 200 ppm): statistically significantly lower
- Avg. Dry Weights ± SD (cabbage; [4]): 3.1 ± 0.1
- Avg. Fresh Weights ± SD (cabbage; [4]): 28.6 ± 2.7
- Avg. Dry Weights ± SD (cabbage; [5]): 3.2 ± 0.2
- Avg. Fresh Weights ± SD (cabbage; [5]): 31.4 ± 1.3
- Avg. Dry Weights ± SD (cabbage; [6]): 2.5 ± 0.3
- Avg. Fresh Weights ± SD (cabbage; [6]): 10.2 ± 2.6
- Avg. Dry Weights ± SD (cabbage; [7]): 3.5 ± 0.1
- Avg. Fresh Weights ± SD (cabbage; [7]): 15.2 ± 0.6
